Source: US20090018148A1, “Xanthine Derivatives, Processes For Preparing Them And Their Uses” (UCB PHARMA, S.A., priority 2005, published 2009)

In the case of CCOC(=O)C(CC)Sc1nc2c(c(=O)n(C)c(=O)n2C)n1Cc1ccccc1 (racemic) [Compound 1, ethyl 2-[(7-benzyl-1,3-dimethyl-2,6-dioxo-2,3,6,7-tetrahydro-1H-purin-8-yl)thio]butanoate], the melting point is reported as 72 °C.
In the case of CCOC(=O)C(CC)Sc1nc2c(c(=O)n(CCOC)c(=O)n2C)n1Cc1cccc(Br)c1 (racemic) [Compound 3, ethyl 2-{[7-(3-bromobenzyl)-1-(2-methoxyethyl)-3-methyl-2,6-dioxo-2,3,6,7-tetrahydro-1H-purin-8-yl]thio}butanoate], the melting point is reported as 58 °C.
Compound CCOC(=O)C(CC)Sc1nc2[nH]c(=O)[nH]c(=O)c2n1Cc1cccc(Br)c1 (racemic) [Compound 4, ethyl 2-{[7-(3-bromobenzyl)-2,6-dioxo-2,3,6,7-tetrahydro-1H-purin-8-yl]thio}butanoate] has a melting point of 90.1 °C.
CCOC(=O)C(CC)Sc1nc2c(c(=O)n(C)c(=O)n2C)n1Cc1cccc(Br)c1 (racemic) [Compound 5, ethyl 2-{[7-(3-bromobenzyl)-1,3-dimethyl-2,6-dioxo-2,3,6,7-tetrahydro-1H-purin-8-yl]thio}butanoate] gave a melting point of 76 °C.
For CCOC(=O)C(CC)Sc1nc2c(c(=O)n(C)c(=O)n2C)n1Cc1ccccc1Br (racemic) [Compound 6, ethyl 2-{[7-(2-bromobenzyl)-1,3-dimethyl-2,6-dioxo-2,3,6,7-tetrahydro-1H-purin-8-yl]thio}butanoate], the melting point was 101 °C.
Compound CCOC(=O)C(CC)Sc1nc2c(c(=O)n(CC#N)c(=O)n2C)n1Cc1cccc(Br)c1 (racemic) [Compound 7, ethyl 2-{[7-(3-bromobenzyl)-1-(cyanomethyl)-3-methyl-2,6-dioxo-2,3,6,7-tetrahydro-1H-purin-8-yl]thio}butanoate] has a melting point of 84 °C.
Work on C#CCn1c(=O)c2c(nc(SC(CC)C(=O)OCC)n2Cc2cccc(Br)c2)n(C)c1=O (racemic) [Compound 11, ethyl 2-{[7-(3-bromobenzyl)-3-methyl-2,6-dioxo-1-(2-propynyl)-2,3,6,7-tetrahydro-1H-purin-8-yl]thio}butanoate] yielded a melting point of 97 °C.
For CCOC(=O)C(CC)Sc1nc2c(c(=O)[nH]c(=O)n2C)n1Cc1cccc(OC)c1 (racemic) [Compound 12, ethyl 2-{[7-(3-methoxybenzyl)-3-methyl-2,6-dioxo-2,3,6,7-tetrahydro-1H-purin-8-yl]thio}butanoate], the melting point was 115 °C.
With CCOC(=O)C(CC)Sc1nc2c(c(=O)[nH]c(=O)n2C)n1Cc1cccc([N+](=O)[O-])c1 (racemic) [Compound 13, ethyl 2-{[3-methyl-7-(3-nitrobenzyl)-2,6-dioxo-2,3,6,7-tetrahydro-1H-purin-8-yl]thio}butanoate] the melting point was 147 °C.
Work on CCOC(=O)C(CC)Sc1nc2c(c(=O)[nH]c(=O)n2C)n1Cc1cccc(N)c1 (racemic) [Compound 14, ethyl 2-{[7-(3-aminobenzyl)-3-methyl-2,6-dioxo-2,3,6,7-tetrahydro-1H-purin-8-yl]thio}butanoate] yielded a melting point of 107 °C.
CCOC(=O)C(CC)Sc1nc2c(c(=O)[nH]c(=O)n2C)n1Cc1ccc(S(N)(=O)=O)cc1 (racemic) [Compound 15, ethyl 2-({7-[4-(aminosulfonyl)benzyl]-3-methyl-2,6-dioxo-2,3,6,7-tetrahydro-1H-purin-8-yl}thio)butanoate] gave a melting point of 175.2 °C.
Compound CCOC(=O)C(CC)Sc1nc2c(c(=O)[nH]c(=O)n2C)n1Cc1c(C)noc1C (racemic) [Compound 20, ethyl 2-({7-[(3,5-dimethylisoxazol-4-yl)methyl]-3-methyl-2,6-dioxo-2,3,6,7-tetrahydro-1H-purin-8-yl}thio)butanoate] has a melting point of 208 °C.
With CCOC(=O)C(CC)Sc1nc2c(c(=O)[nH]c(=O)n2C)n1Cc1ccc([N+](=O)[O-])o1 (racemic) [Compound 21, ethyl 2-({3-methyl-7-[(5-nitro-2-furyl)methyl]-2,6-dioxo-2,3,6,7-tetrahydro-1H-purin-8-yl}thio)butanoate] the melting point was 172 °C.
For CCCCn1c(SC(CC)C(=O)OCC)nc2c1c(=O)[nH]c(=O)n2C (racemic) [Compound 22, ethyl 2-[(7-butyl-3-methyl-2,6-dioxo-2,3,6,7-tetrahydro-1H-purin-8-yl)thio]butanoate], the melting point was 104 °C.
Compound CCCCCCn1c(SC(CC)C(=O)OCC)nc2c1c(=O)[nH]c(=O)n2C (racemic) [Compound 25, ethyl 2-[(7-hexyl-3-methyl-2,6-dioxo-2,3,6,7-tetrahydro-1H-purin-8-yl)thio]butanoate] has a melting point of 87 °C.
CCC(Sc1nc2c(c(=O)[nH]c(=O)n2C)n1Cc1cccc(Br)c1)C(N)=O (racemic) [Compound 27, 2-{[7-(3-bromobenzyl)-3-methyl-2,6-dioxo-2,3,6,7-tetrahydro-1H-purin-8-yl]thio}butanamide] showed a melting point of 244.15 °C.
With CCCCn1c(SC(CC)C(N)=O)nc2c1c(=O)[nH]c(=O)n2C (racemic) [Compound 28, 2-[(7-butyl-3-methyl-2,6-dioxo-2,3,6,7-tetrahydro-1H-purin-8-yl)thio]butanamide] the melting point was 253 °C.
Work on CCOC(=O)C(CC)Sc1nc2c(c(=O)[nH]c(=O)n2C)n1CC(C)C (racemic) [Compound 31, ethyl 2-[(7-isobutyl-3-methyl-2,6-dioxo-2,3,6,7-tetrahydro-1H-purin-8-yl)thio]butanoate] yielded a melting point of 132 °C.
In the case of CCC(CC)Sc1nc2c(c(=O)[nH]c(=O)n2C)n1Cc1cccc(Br)c1 [Compound 29, 7-(3-bromobenzyl)-8-[(1-ethylpropyl)thio]-3-methyl-3,7-dihydro-1H-purine-2,6-dione], the melting point is reported as 167 °C.
